Data from PMC6332320, “Factors Influencing Oral Bioavailability of Thai Mango Seed Kernel Extract and Its Key Phenolic Principles” (Molecules, 2015).
Several values for one entry are separate records, joined by “and”; a condition that tells them apart may be missing. Equal entries are not always repeated.

Columns and labels:
Caco-2 monolayer = assay: Caco-2 transepithelial transport experiment; format: in vitro ADME, human; conditions: 20 µM
Protocol: The transport experiment using Caco-2 monolayer was performed according to the criteria in our laboratory as previously reported with slight modification. Briefly, the cell monolayers were prepared by seeding 400,000 cells onto a polycarbonate insert, which has a surface area and pore size of 4.2 cm^2 and 3 μm, respectively (Nunc™, Thermo Fisher Scientific, Waltham, MA, USA). Cells were maintained in a humidified atmosphere at 37 °C (90% humidity and 5% CO2) and fed every other day. After 19 to 22 days post-seeding, the cell monolayers were used in the experiments. Before the experiment, the monolayers were quickly washed twice with pre-warmed HBSS at pH 7.4 (37 °C). The integrity of each monolayer was then verified by measuring the transepithelial electrical resistance (TEER) using a Millicell® ERS meter (Millipore, Bedford, MA, USA), and layers with TEER values less than 400 Ω/cm^2 relative to that of the blank insert were discarded. Then, the monolayers were incubated with the HBSS buffer at 37 °C for 1 h, and the incubation buffer was then aspirated. The test compounds were dissolved in HBSS at pH 6 to obtain final concentrations for the individual compounds (20 μM), mixture (20 μM) and MSKE (0.25 mg/mL), which were then loaded onto the A or B side (2.6 mL) as the donor side. A 2.6 mL aliquot of HBSS at pH 6 without the test compounds was loaded into the other side as the receiver side. After incubation at 37 °C, 0.6 mL of sample was collected from the receiver side at indicated times (60, 120, 180 and 240 min), and the same volume of receiver medium was replaced after each sampling. At the end of the experiment, the cells were washed twice with ice-cold HBSS at pH 6. The cells in each well were then collected and resuspended in 600 μL of HBSS at pH 6, and sonicated in an ice water bath at an output of 9 W for 30 min to obtain the cell lysates. The lysate was divided into the following aliquots: (1) 20 μL for quantitative protein assessment using a BCA™ protein assay kit and (2) 580 μL for quantitative test compounds. The samples collected from the transport study were stored at −20 °C until the UPLC or LC–MS/MS analysis. The experiments were performed in triplicate.
The apparent permeability coefficient (Papp, cm/s) of each compound was calculated according to the following equation (Equation (1)): (1) Papp= dQ/dt×1/AC0 where dQ/dt is the compound permeation rate (nmol/s), A denotes the membrane surface area, and C0 is the initial concentration on the donor side (µM). The efflux ratio was calculated according to the following equation (Equation (2)): (2) Efflux ratio= Papp BA(mean)/Papp AB(mean) where Papp BA (mean) and Papp AB (mean) are the average apparent permeability coefficients of each compound from side B to side A, and from side A to side B, respectively.

[1] = rats, i.p., mixture of MG and PGG 20 mg/kg each, cited from earlier work

Row | SMILES | accumulation in the cells (cellular uptake) (Caco-2 monolayer; after individual bi-directional transport across Caco-2 monolayer) | Papp B to A (Caco-2 monolayer; human, Caco-2, 240 min, pH 6) | Cmax ([1]; blood) | Tmax ([1]; blood) [h] | CL [1] [mL/min/kg] | Ke [1] [h⁻¹] | MRTlast [1] [h] | Vd [1] [L/kg] | t1/2 [1] [h]
1 | O=C(O)c1cc(O)c(O)c(O)c1 [GA, Gallic acid] | could not be detected | 1.87 ± 0.47 ×10^−6 cm/s |  |  |  |  |  |  | 
2 | COC(=O)c1cc(O)c(O)c(O)c1 [MG, methyl gallate] |  |  | 35 µM and 34.7 µM | 0.85 ± 0.70 | 2665.2 ± 1268 | 0.056 ± 0.032 | 8.71 ± 2.53 | 530.95 ± 247.54 | 17.50 ± 12.25
